{"source": "patent US20170143701A1", "about": "“CARBOHYDRATE METABOLISM-AMELIORATING AGENT” (SUNTORY HOLDINGS LIMITED, priority 2014, published 2017)", "system": "C57/BL6J mice", "experiment": "In vivo plasma GLP-1 level-increasing action: plasma active GLP-1 level (ELISA) after oral administration", "details": "10 mg/kg oral; for Significant difference (p < 0.05) vs control group, plasma active GLP-1 level: 30 minutes, Student's t-test; for Plasma active GLP-1 level (relative value to control group as 100), average value: blood 30 minutes after, 0.5% CMC-Na group = 100", "experimental": "Seven-week-old male C57/BL6J mice were purchased from CLEA Japan, Inc. for use, and they were subjected to an experiment after 1 week of a habituation period.\nAfter the habituation period, the mice were subjected to 5.5 hours of food deprivation and 2 hours of water deprivation. Thereafter, a cyclic dipeptide dissolved or suspended in a 0.5% CMC-Na aqueous solution in 10 mg/kg was orally administered to each mouse forcibly. After 30 minutes, the blood was collected from the abdominal vena cava under anesthesia, and 1 μL of heparin sodium and 1 μL of 10 mM Sitagliptin phosphate were added to each collected blood, which was then subjected to centrifugation at 8000 rpm for 10 minutes to recover the plasma, and the plasma active GLP-1 level was measured by using the ELISA kit. In the analysis, the active GLP-1 level for a group administered with 0.5% CMC-Na aqueous solution was defined as 100, and relative values thereto were used.", "data": [{"smiles": "CSCC[C@@H]1NC(=O)CNC1=O", "note": "[compound 127, cyclo-methionyl-glycine]", "values": [{"measurement": "Significant difference (p < 0.05) vs control group, plasma active GLP-1 level", "setting": "Table 14, Experiment 9", "result": "Yes"}, {"measurement": "Plasma active GLP-1 level (relative value to control group as 100), average value", "setting": "Table 14, Experiment 9", "result": 124}]}, {"smiles": "O=C1N[C@@H](CS)C(=O)N[C@H]1CO", "note": "[compound 180, cyclo-seryl-cysteine]", "values": [{"measurement": "Significant difference (p < 0.05) vs control group, plasma active GLP-1 level", "setting": "Table 15, Experiment 10", "result": "Yes"}, {"measurement": "Plasma active GLP-1 level (relative value to control group as 100), average value", "setting": "Table 15, Experiment 10", "result": 259}]}, {"smiles": "CC1NC(=O)C(Cc2ccc(O)cc2)NC1=O", "note": "(stereo not shown) [compound 86, Cyclo(Ala-Tyr)]", "values": [{"measurement": "Significant difference (p < 0.05) vs control group, plasma active GLP-1 level", "setting": "Table 11, Experiment 6", "result": "No"}, {"measurement": "Plasma active GLP-1 level (relative value to control group as 100), average value", "setting": "Table 11, Experiment 6", "result": 90}]}, {"smiles": "CC1NC(=O)C(Cc2ccccc2)NC1=O", "note": "(stereo not shown) [compound 52, Cyclo(Ala-Phe)]", "values": [{"measurement": "Significant difference (p < 0.05) vs control group, plasma active GLP-1 level", "setting": "Table 10, Experiment 5", "result": "No"}, {"measurement": "Plasma active GLP-1 level (relative value to control group as 100), average value", "setting": "Table 10, Experiment 5", "result": 93}]}, {"smiles": "CC(C)C1NC(=O)C(CC(=O)O)NC1=O", "note": "(stereo not shown) [compound 140, cyclo-valyl-aspartic acid]", "values": [{"measurement": "Significant difference (p < 0.05) vs control group, plasma active GLP-1 level", "setting": "Table 14, Experiment 9", "result": "Yes"}, {"measurement": "Plasma active GLP-1 level (relative value to control group as 100), average value", "setting": "Table 14, Experiment 9", "result": 120}]}, {"smiles": "CSCC[C@@H]1NC(=O)[C@H]([C@H](C)O)NC1=O", "note": "[compound 169, cyclo-methionyl-threonine]", "values": [{"measurement": "Significant difference (p < 0.05) vs control group, plasma active GLP-1 level", "setting": "Table 15, Experiment 10", "result": "Yes"}, {"measurement": "Plasma active GLP-1 level (relative value to control group as 100), average value", "setting": "Table 15, Experiment 10", "result": 282}]}, {"smiles": "O=C(O)CCC1NC(=O)C(Cc2ccccc2)NC1=O", "note": "(stereo not shown) [compound 53, Cyclo(Glu-Phe)]", "values": [{"measurement": "Significant difference (p < 0.05) vs control group, plasma active GLP-1 level", "setting": "Table 10, Experiment 5", "result": "No"}, {"measurement": "Plasma active GLP-1 level (relative value to control group as 100), average value", "setting": "Table 10, Experiment 5", "result": 93}]}, {"smiles": "CC1NC(=O)C(Cc2c[nH]c3ccccc23)NC1=O", "note": "(stereo not shown) [compound 76, Cyclo(Trp-Ala)]", "values": [{"measurement": "Significant difference (p < 0.05) vs control group, plasma active GLP-1 level", "setting": "Table 11, Experiment 6", "result": "No"}, {"measurement": "Plasma active GLP-1 level (relative value to control group as 100), average value", "setting": "Table 11, Experiment 6", "result": 110}]}, {"smiles": "CCC(C)C1NC(=O)CNC1=O", "note": "(stereo not shown) [compound 156, Cyclo(Ile-Gly)]", "values": [{"measurement": "Significant difference (p < 0.05) vs control group, plasma active GLP-1 level", "setting": "Table 15, Experiment 10", "result": "No"}, {"measurement": "Plasma active GLP-1 level (relative value to control group as 100), average value", "setting": "Table 15, Experiment 10", "result": 145}]}, {"smiles": "O=C(O)CCC1NC(=O)C(Cc2c[nH]c3ccccc23)NC1=O", "note": "(stereo not shown) [compound 77, Cyclo(Trp-Glu)]", "values": [{"measurement": "Significant difference (p < 0.05) vs control group, plasma active GLP-1 level", "setting": "Table 11, Experiment 6", "result": "No"}, {"measurement": "Plasma active GLP-1 level (relative value to control group as 100), average value", "setting": "Table 11, Experiment 6", "result": 110}]}, {"smiles": "CSCC[C@@H]1NC(=O)[C@H](CC(C)C)NC1=O", "note": "[compound 72, Cyclo(Met-Leu)]", "values": [{"measurement": "Significant difference (p < 0.05) vs control group, plasma active GLP-1 level", "setting": "Table 11, Experiment 6", "result": "No"}, {"measurement": "Plasma active GLP-1 level (relative value to control group as 100), average value", "setting": "Table 11, Experiment 6", "result": 90}]}, {"smiles": "O=C(O)C[C@@H]1NC(=O)[C@H](Cc2ccc(O)cc2)NC1=O", "note": "[compound 91, Cyclo(Asp-Tyr)]", "values": [{"measurement": "Significant difference (p < 0.05) vs control group, plasma active GLP-1 level", "setting": "Table 12, Experiment 7", "result": "No"}, {"measurement": "Plasma active GLP-1 level (relative value to control group as 100), average value", "setting": "Table 12, Experiment 7", "result": 181}]}, {"smiles": "CC(C)C1NC(=O)C(Cc2cnc[nH]2)NC1=O", "note": "(stereo not shown) [compound 108, Cyclo(Val-His)]", "values": [{"measurement": "Significant difference (p < 0.05) vs control group, plasma active GLP-1 level", "setting": "Table 13, Experiment 8", "result": "No"}, {"measurement": "Plasma active GLP-1 level (relative value to control group as 100), average value", "setting": "Table 13, Experiment 8", "result": 118}]}, {"smiles": "CSCCC1NC(=O)C(Cc2c[nH]c3ccccc23)NC1=O", "note": "(stereo not shown) [compound 83, Cyclo(Trp-Met)]", "values": [{"measurement": "Significant difference (p < 0.05) vs control group, plasma active GLP-1 level", "setting": "Table 11, Experiment 6", "result": "No"}, {"measurement": "Plasma active GLP-1 level (relative value to control group as 100), average value", "setting": "Table 11, Experiment 6", "result": 110}]}, {"smiles": "CC1NC(=O)C(CS)NC1=O", "note": "(stereo not shown) [compound 177, cyclo-alanyl-cysteine]", "values": [{"measurement": "Significant difference (p < 0.05) vs control group, plasma active GLP-1 level", "setting": "Table 15, Experiment 10", "result": "Yes"}, {"measurement": "Plasma active GLP-1 level (relative value to control group as 100), average value", "setting": "Table 15, Experiment 10", "result": 282}]}, {"smiles": "CCC(C)C1NC(=O)C(CC(C)C)NC1=O", "note": "(stereo not shown) [compound 71, Cyclo(Ile-Leu)]", "values": [{"measurement": "Significant difference (p < 0.05) vs control group, plasma active GLP-1 level", "setting": "Table 11, Experiment 6", "result": "No"}, {"measurement": "Plasma active GLP-1 level (relative value to control group as 100), average value", "setting": "Table 11, Experiment 6", "result": 79}]}, {"smiles": "CCC(C)C1NC(=O)C(C(C)C)NC1=O", "note": "(stereo not shown) [compound 138, Cyclo(Ile-Val)]", "values": [{"measurement": "Significant difference (p < 0.05) vs control group, plasma active GLP-1 level", "setting": "Table 14, Experiment 9", "result": "No"}, {"measurement": "Plasma active GLP-1 level (relative value to control group as 100), average value", "setting": "Table 14, Experiment 9", "result": 96}]}, {"smiles": "CCC(C)C1NC(=O)C(CCSC)NC1=O", "note": "(stereo not shown) [compound 119, Cyclo(Met-Ile)]", "values": [{"measurement": "Significant difference (p < 0.05) vs control group, plasma active GLP-1 level", "setting": "Table 13, Experiment 8", "result": "No"}, {"measurement": "Plasma active GLP-1 level (relative value to control group as 100), average value", "setting": "Table 13, Experiment 8", "result": 106}]}, {"smiles": "CC(C)C[C@@H]1NC(=O)[C@H](Cc2ccccc2)NC1=O", "note": "[compound 16, Cyclo(Leu-Phe)]", "values": [{"measurement": "Significant difference (p < 0.05) vs control group, plasma active GLP-1 level", "setting": "Table 9, Experiment 4", "result": "No"}, {"measurement": "Plasma active GLP-1 level (relative value to control group as 100), average value", "setting": "Table 9, Experiment 4", "result": 105}]}, {"smiles": "CC(C)CC1NC(=O)C(CCC(=O)O)NC1=O", "note": "(stereo not shown) [compound 145, cyclo-glutamyl-leucine]", "values": [{"measurement": "Significant difference (p < 0.05) vs control group, plasma active GLP-1 level", "setting": "Table 15, Experiment 10", "result": "Yes"}, {"measurement": "Plasma active GLP-1 level (relative value to control group as 100), average value", "setting": "Table 15, Experiment 10", "result": 236}]}]}
